Organism: Rattus norvegicus
Assay: DrugMatrix - Regimen: Daily Repeat
Type: toxicity, organism-based, Sprague-Dawley
Design: regimen Daily Repeat, gender Male, age 6-8 weeks
Conditions: in vivo, po, route oral GAVAGE, vehicle .5 % CMC; for ABSOLUTE BASOPHIL / ABSOLUTE EOSINOPHIL / ABSOLUTE LYMPHOCYTE / ABSOLUTE MONOCYTE / ABSOLUTE SEGMENTED NEUTROPHIL / BASOPHIL / EOSINOPHIL / ERYTHROCYTE COUNT / HEMATOCRIT / HEMOGLOBIN / LEUKOCYTE COUNT / LYMPHOCYTE / MEAN CORPUSCULAR HEMOGLOBIN / MEAN CORPUSCULAR HEMOGLOBIN CONCENTRATION / MEAN CORPUSCULAR VOLUME / MONOCYTE / NEUTROPHIL / NUCLEATED RED BLOOD CELLS / PLATELET COUNT: tissue Blood; for ALANINE AMINOTRANSFERASE / ALBUMIN / ALKALINE PHOSPHATASE / ASPARTATE AMINOTRANSFERASE / BLOOD UREA NITROGEN / CARBON DIOXIDE / CHLORIDE / CHOLESTEROL / CREATINE PHOSPHOKINASE / CREATININE / GLUCOSE / LACTATE DEHYDROGENASE / LIPASE / PHOSPHORUS / POTASSIUM / SODIUM / TOTAL BILIRUBIN / TOTAL PROTEIN / URIC ACID: tissue Plasma
[1] = 4.5 mg/kg, 120 h, dose level Low, time 5 day
[2] = 10 mg/kg, 72 h, dose level High, time 3 day
[3] = 10 mg/kg, 120 h, dose level High, time 5 day

SMILES: CC(C(=O)O)c1ccc(-c2ccccc2)c(F)c1 (centres undefined) [FLURBIPROFEN]
- ABSOLUTE BASOPHIL [1]: 0 CELLS/uL
- ABSOLUTE EOSINOPHIL [1]: 147.67 CELLS/uL
- ABSOLUTE LYMPHOCYTE [1]: 17510 CELLS/uL
- ABSOLUTE MONOCYTE [1]: 77.67 CELLS/uL
- ABSOLUTE SEGMENTED NEUTROPHIL [1]: 4798 CELLS/uL
- BASOPHIL [1]: 0%
- EOSINOPHIL [1]: 0.67%
- ERYTHROCYTE COUNT [1]: 5.45 x10E6/uL
- HEMATOCRIT [1]: 34.47%
- HEMOGLOBIN [1]: 12.83 G/DL
- LEUKOCYTE COUNT [1]: 22.53 x10E3/uL
- LYMPHOCYTE [1]: 77.67%
- MEAN CORPUSCULAR HEMOGLOBIN [1]: 23.53 pg
- MEAN CORPUSCULAR HEMOGLOBIN CONCENTRATION [1]: 37.23 G/DL
- MEAN CORPUSCULAR VOLUME [1]: 63.2 fL
- MONOCYTE [1]: 0.33%
- NEUTROPHIL [1]: 21.33%
- NUCLEATED RED BLOOD CELLS [1]: 0 /100WBC
- PLATELET COUNT [1]: 1825.67 x10E3/uL
- ALANINE AMINOTRANSFERASE [1]: 45.67 u/L
- ALBUMIN [1]: 3.93 G/DL
- ALKALINE PHOSPHATASE [1]: 223.33 u/L
- ASPARTATE AMINOTRANSFERASE [1]: 67.33 u/L
- BLOOD UREA NITROGEN [1]: 14.67 mg/dL
- CARBON DIOXIDE [1]: 27.67 mmol/L
- CHLORIDE [1]: 100 MEQ/L
- CHOLESTEROL [1]: 64.33 mg/dL
- CREATINE PHOSPHOKINASE [1]: 204.67 u/L
- CREATININE [1]: 0.18 mg/dL
- GLUCOSE [1]: 162.67 mg/dL
- LACTATE DEHYDROGENASE [1]: 109.33 u/L
- LIPASE [1]: 8.67 u/L
- PHOSPHORUS [1]: 11.9 mg/dL
- POTASSIUM [1]: 6.47 MEQ/L
- SODIUM [1]: 143.53 MEQ/L
- TOTAL BILIRUBIN [1]: 0.17 mg/dL
- TOTAL PROTEIN [1]: 5.73 G/DL
- URIC ACID [1]: 2.47 mg/dL
- ABSOLUTE BASOPHIL [2]: 0 CELLS/uL
- ABSOLUTE EOSINOPHIL [2]: 156 CELLS/uL
- ABSOLUTE LYMPHOCYTE [2]: 13184.67 CELLS/uL
- ABSOLUTE MONOCYTE [2]: 124.67 CELLS/uL
- ABSOLUTE SEGMENTED NEUTROPHIL [2]: 3134.67 CELLS/uL
- BASOPHIL [2]: 0%
- EOSINOPHIL [2]: 1%
- ERYTHROCYTE COUNT [2]: 4.13 x10E6/uL
- HEMATOCRIT [2]: 25.13%
- HEMOGLOBIN [2]: 10 G/DL
- LEUKOCYTE COUNT [2]: 16.6 x10E3/uL
- LYMPHOCYTE [2]: 79.67%
- MEAN CORPUSCULAR HEMOGLOBIN [2]: 24.27 pg
- MEAN CORPUSCULAR HEMOGLOBIN CONCENTRATION [2]: 39.83 G/DL
- MEAN CORPUSCULAR VOLUME [2]: 61.07 fL
- MONOCYTE [2]: 0.67%
- NEUTROPHIL [2]: 18.67%
- NUCLEATED RED BLOOD CELLS [2]: 0 /100WBC
- PLATELET COUNT [2]: 1131.67 x10E3/uL
- ALANINE AMINOTRANSFERASE [2]: 16 u/L
- ALBUMIN [2]: 2.13 G/DL
- ALKALINE PHOSPHATASE [2]: 132.67 u/L
- ASPARTATE AMINOTRANSFERASE [2]: 50 u/L
- BLOOD UREA NITROGEN [2]: 12 mg/dL
- CARBON DIOXIDE [2]: 23 mmol/L
- CHLORIDE [2]: 104.33 MEQ/L
- CHOLESTEROL [2]: 60 mg/dL
- CREATINE PHOSPHOKINASE [2]: 459.67 u/L
- CREATININE [2]: 0.11 mg/dL
- GLUCOSE [2]: 149.33 mg/dL
- LACTATE DEHYDROGENASE [2]: 200.33 u/L
- LIPASE [2]: 7.33 u/L
- PHOSPHORUS [2]: 10.17 mg/dL
- POTASSIUM [2]: 6.66 MEQ/L
- SODIUM [2]: 141.47 MEQ/L
- TOTAL BILIRUBIN [2]: 0 mg/dL
- TOTAL PROTEIN [2]: 3.97 G/DL
- URIC ACID [2]: 1.6 mg/dL
- ABSOLUTE BASOPHIL [3]: 0 CELLS/uL
- ABSOLUTE EOSINOPHIL [3]: 295.67 CELLS/uL
- ABSOLUTE LYMPHOCYTE [3]: 12633.33 CELLS/uL
- ABSOLUTE MONOCYTE [3]: 394 CELLS/uL
- ABSOLUTE SEGMENTED NEUTROPHIL [3]: 4310.33 CELLS/uL
- BASOPHIL [3]: 0%
- EOSINOPHIL [3]: 2%
- ERYTHROCYTE COUNT [3]: 4.56 x10E6/uL
- HEMATOCRIT [3]: 28.67%
- HEMOGLOBIN [3]: 11 G/DL
- LEUKOCYTE COUNT [3]: 17.63 x10E3/uL
- LYMPHOCYTE [3]: 68.33%
- MEAN CORPUSCULAR HEMOGLOBIN [3]: 24.17 pg
- MEAN CORPUSCULAR HEMOGLOBIN CONCENTRATION [3]: 38.37 G/DL
- MEAN CORPUSCULAR VOLUME [3]: 62.97 fL
- MONOCYTE [3]: 1.67%
- NEUTROPHIL [3]: 28%
- NUCLEATED RED BLOOD CELLS [3]: 0.33 /100WBC
- PLATELET COUNT [3]: 1559.67 x10E3/uL
- ALANINE AMINOTRANSFERASE [3]: 29 u/L
- ALBUMIN [3]: 2.7 G/DL
- ALKALINE PHOSPHATASE [3]: 259.67 u/L
- ASPARTATE AMINOTRANSFERASE [3]: 105.67 u/L
- BLOOD UREA NITROGEN [3]: 16 mg/dL
- CARBON DIOXIDE [3]: 25 mmol/L
- CHLORIDE [3]: 100.67 MEQ/L
- CHOLESTEROL [3]: 63.33 mg/dL
- CREATINE PHOSPHOKINASE [3]: 164.67 u/L
- CREATININE [3]: 0.13 mg/dL
- GLUCOSE [3]: 140.33 mg/dL
- LACTATE DEHYDROGENASE [3]: 138 u/L
- LIPASE [3]: 8.33 u/L
- PHOSPHORUS [3]: 11.9 mg/dL
- POTASSIUM [3]: 6.44 MEQ/L
- SODIUM [3]: 142.2 MEQ/L
- TOTAL BILIRUBIN [3]: 0.1 mg/dL
- TOTAL PROTEIN [3]: 5.03 G/DL
- URIC ACID [3]: 1.63 mg/dL

Reference: ChEMBL document CHEMBL3885881, “DrugMatrix”
